The record followed here is patent US8969568B2, “Substituted naphthyridines and their use as medicaments” (Boehringer Ingelheim Pharma GmbH & Co. KG, priority 2010, dated 2015).

The experiment addresses Recombinant human Syk (amino acids 342-635), GST-Syk kinase fusion protein (Homo sapiens (Human), UniProt P43405). Nature of the experiment: Syk Kinase Test (Kinase Glo luminescence). The note with it: read-out: IC50-value, GST-Syk 4 nM final, ATP remaining, 60 minutes at room temperature. In general terms: Kinase-Glo measures the ATP left after a reaction by luminescence.

The structures appear in SMILES notation.

Method: The catalytic activity of the GST-Syk kinase fusion protein was determined using the Kinase Glo® Luminescence Kinase test (Promega; V6712). In this homogeneous test the amount of ATP remaining after the kinase reaction is quantified by a luciferin-luciferase reaction using luminescence. The luminescence signal obtained correlates with the amount of ATP still present and thus correlates inversely with the activity of the protein kinase.
GST-Syk was diluted to 6.0 nM in the test buffer and 10 μl of this dilution were used in the kinase test (final concentration of Syk=4 nM in a total volume of 15 μl).
Positive controls are the reaction mixtures that contain no test substance; negative controls (blanks) are reaction mixtures that contain no kinase.
After 60 minutes, 10 μl Kinase-Glo® solution (Promega, Cat. #V6712) (heated to room temperature) were added to each well and incubation was continued for a further 15 minutes. The plates were read in a Microplate Scintillation and Luminescence Counter (Canberra Packard GmbH).
Data Evaluation and Calculation:
The output file of the “Counter” is a text file that contains the well number and measured counts in two columns. […] Based on this values the % inherent value for the measurement of each substance concentration was calculated using an “MS-Excel—VB macro”. […] The IC50 values were calculated from the % inhibition values using “GraphPadPrism” software (Version 5) (GraphPad Software Inc.).

As a reminder, the IC50 is the concentration at which inhibition is half-maximal. Take `COc1cc(-c2cc3ncccc3c(O[C@H](C)[C@H]3CNC(=O)C3)n2)cc(OC)c1OC` [Example 35, (R)-4-[(R)-1-[7-(3,4,5-Trimethoxy-phenyl)-[1,6]naphthyridin-5-yloxy]-ethyl]-pyrrolidin-2-one]: the IC50 was 0.2 nM.

Turning to `COc1cc(-c2cc3ncccc3c(OC[C@H]3CNC(=O)C3)n2)cc(OC)c1OC1CCOCC1` [Example 44], the IC50 was found to be 16.1 nM.

Regarding `COc1cc(-c2cc3ncccc3c(O[C@H](C)[C@H]3CNC(=O)C3)n2)ccc1OC1CCOCC1` [Example 63], the IC50 is less than 0.1 nM.
